Laboratory results published in patent publication EP1388586A2, “Identification of broadly reactive DR restricted epitopes” (priority 1998, dated 1999).
Where two headings read alike, the source gives them in different places. Ends that are not written are not given here.

Tests used:
DRB1*0405 (DR4w15) = DRB1*0405 (DR4w15) (Homo sapiens, UniProt P01903+P01911, A100R/A169T/D86S/F76Y/I96L/K127E/L162R/M171V/N62H/P40V/Q125Y/R42H/S133A/S149N/S66Y/V115G/V209L/W38E); assay: Class II peptide-binding assay, DR4w15
Procedure: (§1) Class II peptide-binding assays. […] These assays were chosen as to be representative of the most common DR alleles.
(§2) Radiolabeled peptides were iodinated using the chloramine-T method. […] In appropriate stoichiometric conditions, the IC50 of an unlabeled test peptide to the purified DR is a reasonable approximation of the affinity of interaction (Kd). Peptides were tested in two to four completely independent experiments. […] Final detergent concentration in the incubation mixture was 0.05% Nonidet P-40. Assays were performed at pH 7.0 with the exception of DR3, which was performed at pH 4.5, and DRw53, which was performed at pH 5.0.
(§3) All subsequent inhibition and direct binding assays were the performed using these class II concentrations.
DR4w15. The β4 product DRw53 is co-expressed with DR4w15 and the determination of the specificity of the DR4w1 binding assay is complicated in that the same radiolabeled ligand is used for both the DR4w15 and DRw53 binding assays.

DRB1*1101 (DR5w11) = molecular target: T1, DRB1*1101 (DR5w11) (Homo sapiens, UniProt P01903+P01911, A100R/A169T/A87E/I96F/K41T/L162R/M171V/P40S/Q125H/Q178H/Q39Y/Q99D/R42S/S66Y/T262R/V115G/W38E); assay: Class II peptide-binding assay, DR5w11;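 also: competition by unlabeled test peptide against iodinated probe peptide binding to affinity-purified HLA-DR, class II amount titrated beforehand, half-maximal inhibitory concentration read as approximate Kd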
T1 construct: used as sources of human HLA class II molecules; endogenous in cells; host or cells: SWEIG (EBV-transformed homozygous B cell line)

DRB1*1302 (DR6w19) = DRB1*1302 (DR6w19) (Homo sapiens, UniProt P01903+P01911, A100E/A169T/K41T/L162R/M171V/P40S/Q125H/Q178H/Q39Y/Q99D/R42S/S66N/T262R/V115G/W38E/Y61H); assay type: binding
Procedure: The lysates were cleared of debris and nuclei by centrifugation at 10,000 x g for 20 min.
Affinity purification of HLA-DR molecules.
as §1, §2, §3
DR6w19. The DR6w19 assay utilizes as the source of class II molecules the EBV transformed homozygous cell line H0301, which co-expresses DRB30301 (DR52a). While the radiolabeled ligand used in the DR6w19 assay is different than that used for the DR52a assay, the ligand is related (i.e., is a single substitution analog) to a high affinity DR52a binder. As was done in the case of DR4w15, the specificity of the assay was investigated by analyzing the binding capacity of a panel of naturally occurring peptides for DR6w19 and DR52a.

DRB1*0701 (DR7) = DRB1*0701 (DR7) (Homo sapiens, UniProt P01903+P01911, A100R/A102G/A103Q/D57E/D86V/E43K/F76Y/K127E/L162R/M171V/P40G/Q125H/Q99D/R33Q/R42Y/R54Q/S133A/S66F/T210M/V115G/Y107V/Y59L/Y89S); assay: Class II peptide-binding assay, DR7;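 also: unlabeled peptides compete with an iodinated probe peptide for binding to affinity-purified HLA-DR at neutral pH, DR amount titered to bind a small tracer fraction, IC50 approximating Kd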
[1] = tested on: panel of purified HLA DR molecules; assay type: binding, human;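 also: competitive inhibition of radiolabeled probe peptide binding to purified HLA DR molecules, with inhibitory potency of unlabeled peptides taken as an approximation of affinity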
DRB1*0101 (DR1) = molecular target: T2, DRB1*0101 (DR1) (Homo sapiens, UniProt P01903+P01911, A100R/D57E/F55L/F60I/F76Y/I96L/L162R/M171V/P40L/Q125E/R42F/V115G/Y59C); assay: Class II peptide-binding assay, DR1;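 also: competition assay: unlabeled test peptides inhibit binding of a radiolabeled probe peptide to purified DR, with half-maximal inhibition taken as an approximate dissociation constant Kd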
T2 construct: used as sources of human HLA class II molecules; endogenous in cells; host or cells: LG2 (EBV-transformed homozygous B cell line)

DRB1*1501 (DR2w2b) = molecular target: T3, DRB1*1501 (DR2w2b) (Homo sapiens, UniProt P01903+P01911); assay: Class II peptide-binding assay, DR2w2b (DR2w2B1)
T3 construct: expressed in transfected cells; host or cells: L466.1 transfected fibroblasts
Procedure: as §1
(§4) In appropriate stoichiometric conditions, the IC50 of an unlabeled test peptide to the purified DR is a reasonable approximation of the affinity of interaction (Kd). Peptides were tested in two to four completely independent experiments. […] Final detergent concentration in the incubation mixture was 0.05% Nonidet P-40. Assays were performed at pH 7.0 with the exception of DR3, which was performed at pH 4.5, and DRw53, which was performed at pH 5.0.
as §3

DRB1*0401 (DR4w4) = molecular target: T4, DRB1*0401 (DR4w4) (Homo sapiens, UniProt P01903+P01911, A100K/A169T/F76Y/I96L/K127E/L162R/M171V/N62H/P40V/Q125Y/R42H/S133A/S149N/S66Y/V115G/V209L/W38E); assay: Class II peptide-binding assay, DR4w4; details: Table V A) Non Predictions; read-out: Binding Capacity DR4w4;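 also: unlabeled test peptides compete with a radiolabeled probe peptide for binding to affinity-purified HLA-DR, with DR amount titrated to capture a small fraction of label, IC50 approximating Kd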
T4 construct: used as sources of human HLA class II molecules; endogenous in cells; host or cells: PREISS (EBV-transformed homozygous B cell line)

DRB1*0802 (DR8w2) = molecular target: T5, DRB1*0802 (DR8w2) (Homo sapiens, UniProt P01903+P01911, A100R/A103L/A169T/F76Y/H45Y/I96F/K41T/L162R/M171V/P40S/Q125H/Q178H/Q39Y/Q99D/R218S/R42G/S66Y/V115G/W38E); assay: Class II peptide-binding assay, DR8w2
T5 construct: used as sources of human HLA class II molecules; endogenous in cells; host or cells: OLL (EBV-transformed homozygous B cell line)
Procedure: as §1, §2, §3
DR8w2 and DR8w3. The β1 specificity of the DR8w2 and DR8w3 assays is obvious in that no β3 (and/or B4 and β5) molecule is expressed.

DRB1*0901 (DR9) = molecular target: T6, DRB1*0901 (DR9) (Homo sapiens, UniProt P01903+P01911, A100R/A103E/D57H/D86V/F55Y/F60I/F76Y/I96F/K127E/L162R/M171V/P40D/Q125H/Q99R/R33Q/R42F/S133A/S66N/T210M/V115G/W38K/Y107V/Y59G/Y89S); assay: Class II peptide-binding assay, DR9; details: Table V A) Non Predictions; read-out: Binding Capacity DR9
T6 construct: used as sources of human HLA class II molecules; endogenous in cells; host or cells: HTC9074 (EBV-transformed homozygous B cell line); gift of Dr. Paul Harris
Procedure: as §1, §4, §3

DRB5*0101 (DR2w2a) = molecular target: T7, DRB5*0101 (DR2w2a) (Homo sapiens, UniProt P01903+Q30154); assay: Class II peptide-binding assay, DR2w2a (DR2w2B2);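 also: competitive binding assay: unlabeled peptide inhibiting binding of a radiolabeled probe peptide to purified DR molecules at pH 7.0, IC50 approximating Kd, lower means stronger binding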
T7 construct: used as sources of human HLA class II molecules; endogenous in cells; host or cells: GM3107 (EBV-transformed homozygous B cell line)

DRB1*1201 (DR5w12) = molecular target: T8, DRB1*1201 (DR5w12) (Homo sapiens, UniProt P01903+P01911, A100R/A169T/D57E/D86V/F55L/H45Y/K41T/L162R/M171V/P40S/Q125H/Q178H/Q39Y/Q99D/R42G/S66L/T262R/V114A/V67L/W38E/Y59H/Y61H/Y89S); assay: Class II peptide-binding assay, DR5w12; details: Table V A) Non Predictions; read-out: Binding Capacity DR5w12
T8 construct: used as sources of human HLA class II molecules; endogenous in cells; host or cells: Herluf (EBV-transformed homozygous B cell line)
Procedure: as §1, §4, §3

[2] = Table V A) Non Predictions, read-out: Binding Capacity DR1
[3] = Table V A) Non Predictions, read-out: Binding Capacity DR2w2b
[4] = Table V A) Non Predictions, read-out: Binding Capacity DR4w15
[5] = Table V A) Non Predictions, read-out: Binding Capacity DR5w11
[6] = Table V A) Non Predictions, read-out: Binding Capacity DR8w2
[7] = Table V A) Non Predictions, 12 DR molecules listed
[8] = read-out: In IC50 Format DR2w2B1 nM, Table VIII, values in parentheses read as lower bounds
[9] = read-out: In IC50 Format DR5w11 nM, Table VIII, values in parentheses read as lower bounds
[10] = read-out: In IC50 Format DR6w19 nM, Table VIII, values in parentheses read as lower bounds
[11] = read-out: In IC50 Format DR7 nM, Table VIII, values in parentheses read as lower bounds

Sequence of DRB1*1302 (DR6w19) (P01903 26-254, other chains not shown): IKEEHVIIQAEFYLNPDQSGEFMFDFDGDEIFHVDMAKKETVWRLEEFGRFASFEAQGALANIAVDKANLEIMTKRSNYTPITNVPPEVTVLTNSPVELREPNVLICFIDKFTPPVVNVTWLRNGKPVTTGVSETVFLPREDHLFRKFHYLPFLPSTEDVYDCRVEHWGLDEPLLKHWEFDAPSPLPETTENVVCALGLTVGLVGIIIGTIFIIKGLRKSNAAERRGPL
T1 sequence (P01903 26-254, other chains not shown): as above

Compound	IC50 (DRB1*0101 (DR1); [2]) [nM]	IC50 (DRB1*1501 (DR2w2b); [3]) [nM]	IC50 (DRB1*0401 (DR4w4)) [nM]	IC50 (DRB1*0405 (DR4w15); [4]) [nM]	IC50 (DRB1*1101 (DR5w11); [5]) [nM]	IC50 (DRB1*0802 (DR8w2); [6]) [nM]	IC50 (DRB1*0901 (DR9)) [nM]	Total Alleles Bound [1, 7]	IC50 (DRB1*1501 (DR2w2b); [8]) [nM]	IC50 (DRB1*1101 (DR5w11); [9]) [nM]	IC50 (DRB1*1302 (DR6w19); [10]) [nM]	IC50 (DRB1*0701 (DR7); [11]) [nM]	other results
QEIDPLSYNYIPVNSN [Peptide 1136.55]													IC50 (DRB1*0405 (DR4w15); Table V B) Correct Predictions, read-out: Binding Capacity (IC50% nM) DR4w15): 271 nM; IC50 (DRB1*1101 (DR5w11); Table V B) Correct Predictions, read-out: Binding Capacity (IC50% nM) DR5w11): 4540 nM; IC50 (DRB1*1302 (DR6w19); Table V B) Correct Predictions, read-out: Binding Capacity (IC50% nM) DR6w19): 5000 nM; IC50 (DRB1*0701 (DR7); Table V B) Correct Predictions, read-out: Binding Capacity (IC50% nM) DR7): 2450 nM; Total Alleles Bound [1]: 3
LFHYYFLSEKAPGSTV [Peptide 1136.04]	24	1260	20	563	69	55	2880	6					IC50 (DRB1*0701 (DR7); Table V A) Non Predictions, read-out: Binding Capacity DR7): 3330 nM; additional DR types bound ([1]; "non-predictions" peptides, beyond DR1, 4w4 or 7): DR2w2 β2, DR4w15, 5w11 and 8w2
WLFPRFKFVWVTYASW [Peptide 1136.44.01]	526		780	6550	4000	6360		2					
GPPTALRSFGFAFGYM [Peptide 1136.29]	32	1.1	4330	745	6250	2970	183	7					IC50 (DRB5*0101 (DR2w2a); Table V A) Non Predictions, read-out: Binding Capacity DR2w2a): 468 nM; IC50 (DRB1*1201 (DR5w12)): 1000 nM
ARLLDIDETEYHADG [Peptide 39.0366]									> 15200	> 25000	> 35000	> 14700	IC50 (DRB1*0101 (DR1); read-out: In IC50 Format DR1 nM, Table VIII, values in parentheses read as lower bounds): 50000 nM; IC50 (DRB5*0101 (DR2w2a); read-out: In IC50 Format DR2w2B2 nM, Table VIII, values in parentheses read as lower bounds): > 28600 nM; IC50 (DRB1*0802 (DR8w2); read-out: In IC50 Format DR8w2 nM, Table VIII, values in parentheses read as lower bounds): > 54400 nM
CC[C@H](C)[C@H](NC(=O)[C@H](CCSC)NC(=O)[C@H](Cc1c[nH]c2ccccc12)NC(=O)[C@@H](N)CS)C(=O)N[C@@H](CC(=O)O)C(=O)N[C@@H](CO)C(=O)N[C@@H](CCC(=O)O)C(=O)N[C@@H](CS)C(=O)N[C@@H](CCCNC(=N)N)C(=O)N1CCC[C@H]1C(=O)N[C@@H](CCCNC(=N)N)C(=O)N[C@@H](Cc1ccccc1)C(=O)N[C@@H](CCCNC(=N)N)C(=O)N[C@@H](CCC(=O)O)C(=O)N[C@@H](CC(C)C)C(=O)O [Peptide 39.0369]									> 15200	> 25000	> 35000	> 17900	IC50 (DRB5*0101 (DR2w2a); Table VIII, values in parentheses read as lower bounds, read-out: In IC50 Format DR2w2B2): 1330 nM
